Measured values taken from ChEMBL document CHEMBL1201862, “PubChem BioAssay data set” (2004).
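A five-concentration, 48-hour dose response in 96-well plates underlies each endpoint, interpolated linearly between surrounding concentrations. At the GI50, growth is halved.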 Active and inactive are the calls of the source. Cut-off read from the data, not from the text of the source: active = GI50 up to about 1.1 µM and inactive = higher.

Experiments:
Assay in all cases: NCI tumour cell line growth inhibition, 48 h
NCI-H460 = test system: NCI-H460
SNB-75 = test system: SNB-75
A549 = test system: A549
HL-60 = test system: HL-60
HOP-92 = test system: HOP-92
SF-268 = test system: SF-268
MDA-MB-231 = test system: MDA-MB-231
SK-MEL-5 = test system: SK-MEL-5
UO-31 = test system: UO-31
786-0 = test system: 786-0
HT-29 = test system: HT-29
HCC 2998 = test system: HCC 2998
RPMI-8226 = test system: RPMI-8226
DU-145 = test system: DU-145
COLO 205 = test system: COLO 205
HCT-116 = test system: HCT-116
KM12 = test system: KM12
Malme-3M = test system: Malme-3M

SMILES | GI50 (NCI-H460) | GI50 (SNB-75) | GI50 (A549) | GI50 (HL-60) | GI50 (HOP-92) | GI50 (SF-268) | GI50 (MDA-MB-231) | GI50 (SK-MEL-5) | GI50 (UO-31) | GI50 (786-0) | GI50 (HT-29) | GI50 (HCC 2998) | GI50 (RPMI-8226) | GI50 (DU-145) | GI50 (COLO 205) | GI50 (HCT-116) | GI50 (KM12) | GI50 (Malme-3M)
Cc1ccc(NC(=S)N/N=C(/c2ccccc2)c2ccccn2)cc1 | 0.117 µM (active) | 0.343 µM (active) | 0.108 µM (active) | < 0.0121 µM (active) | 0.278 µM (active) | < 0.0233 µM (active) | < 0.01 µM (active) | 0.0933 µM (active) | 0.177 µM (active) | 0.0284 µM (active) | 0.0541 µM (active) | 2.22 µM (inactive) | < 0.0161 µM (active) | 0.938 µM (active) | < 0.0166 µM (active) | < 0.01 µM (active) | 0.1 µM (active) | 
CSc1ncc2c(C#N)c3[nH]c4ccccc4n3c(=O)c2n1 | 13.3 µM (inactive) | 44.7 µM (inactive) |  | 7.29 µM (inactive) | 4.2 µM (inactive) | 28 µM (inactive) | 26.6 µM (inactive) | 10.6 µM (inactive) | 8.13 µM (inactive) | 31.7 µM (inactive) |  | 10.9 µM (inactive) | 1.88 µM (inactive) | 28.8 µM (inactive) | 17 µM (inactive) | 13.1 µM (inactive) | 8.63 µM (inactive) | 
Nc1ccccc1-c1noc(=O)[nH]1 |  | > 100 µM (inactive) | > 100 µM (inactive) |  | > 100 µM (inactive) | > 100 µM (inactive) | > 100 µM (inactive) | > 100 µM (inactive) | > 100 µM (inactive) | > 100 µM (inactive) | > 100 µM (inactive) | > 100 µM (inactive) | > 100 µM (inactive) | > 100 µM (inactive) | > 100 µM (inactive) | > 100 µM (inactive) | > 100 µM (inactive) | 
COC(=O)C(Cc1ccccc1)NS(=O)(=O)c1ccc(-c2c3nc(c(-c4ccc(S(=O)(=O)NC(Cc5ccccc5)C(=O)OC)cc4)c4ccc([nH]4)c(-c4ccc(S(=O)(=O)NC(Cc5ccccc5)C(=O)OC)cc4)c4nc(c(-c5ccc(S(=O)(=O)NC(Cc6ccccc6)C(=O)OC)cc5)c5ccc2[nH]5)C=C4)C=C3)cc1 (stereo not given) | 85.5 µM (inactive) | 12.5 µM (inactive) | > 100 µM (inactive) | > 100 µM (inactive) | 31.8 µM (inactive) | > 100 µM (inactive) | > 100 µM (inactive) | > 100 µM (inactive) | > 100 µM (inactive) | 53.6 µM (inactive) | > 100 µM (inactive) | > 100 µM (inactive) | > 100 µM (inactive) | > 100 µM (inactive) | > 100 µM (inactive) | > 100 µM (inactive) | > 100 µM (inactive) | > 100 µM (inactive)
CC12CCCCC1=C(F)C(F)(F)S2 (stereo not given) | > 100 µM (inactive) | > 70.6 µM (inactive) | > 79.3 µM (inactive) | 6.64 µM (inactive) | 23.6 µM (inactive) | > 66.4 µM (inactive) | 83.9 µM (inactive) | 46.3 µM (inactive) | 15 µM (inactive) | 20.8 µM (inactive) | 20.8 µM (inactive) | > 67.1 µM (inactive) | 7.46 µM (inactive) | > 89.1 µM (inactive) | 15.1 µM (inactive) | 22.1 µM (inactive) | > 84.7 µM (inactive) | 24.4 µM (inactive)
CC(=O)OC1c2ccccc2CC2(OC(C)=O)c3ccccc3C12 (stereo not given) | > 100 µM (inactive) | > 100 µM (inactive) | > 100 µM (inactive) | > 10 µM (inactive) | 91 µM (inactive) | > 100 µM (inactive) | > 100 µM (inactive) |  | > 100 µM (inactive) | > 100 µM (inactive) | > 100 µM (inactive) | > 100 µM (inactive) | > 100 µM (inactive) | > 100 µM (inactive) | > 100 µM (inactive) | > 100 µM (inactive) | > 100 µM (inactive) | > 100 µM (inactive)
NC(=S)N/N=C/C1NCCC2CCCCC21 (stereo not given) | 0.231 µM (active) | 24.2 µM (inactive) | 0.262 µM (active) | 0.291 µM (active) | 0.0641 µM (active) | 0.313 µM (active) | 1.12 µM (active) | 0.118 µM (active) | 0.34 µM (active) | 0.138 µM (active) | 2.86 µM (inactive) | 0.108 µM (active) | 0.279 µM (active) | 0.173 µM (active) | 0.373 µM (active) | 0.281 µM (active) | 0.416 µM (active) | 0.254 µM (active)
C[C@H](CCC(=O)O)[C@H]1CC[C@H]2[C@@H]3C(=O)C[C@@H]4C[C@H](O)CC[C@]4(C)[C@H]3C[C@H](O)[C@]12C | > 100 µM (inactive) | 85.5 µM (inactive) | > 100 µM (inactive) | > 100 µM (inactive) | > 100 µM (inactive) | > 100 µM (inactive) | > 100 µM (inactive) |  | > 100 µM (inactive) | > 100 µM (inactive) | > 100 µM (inactive) | > 100 µM (inactive) | > 100 µM (inactive) | > 100 µM (inactive) | > 100 µM (inactive) | > 100 µM (inactive) | > 100 µM (inactive) | > 100 µM (inactive)
